According to patent US12661355B2, “Compounds and methods for inducing UCP1 expression” (The Regents of the University of California, priority 2020, dated 2026):

How the values were obtained:
[1] = target: T1, AKAP1 (Mus musculus, UniProt O08715); assay: Western blot of mitochondria-associated proteins, AKAP1; type: cell-based; details: brown adipocytes, 10 μM, after 6-8 h
T1 construct: from tissue; host or cells: mouse brown adipose tissue (BAT) lysate; also mouse brown adipocyte extracts
T1 sequence (O08715 30-857): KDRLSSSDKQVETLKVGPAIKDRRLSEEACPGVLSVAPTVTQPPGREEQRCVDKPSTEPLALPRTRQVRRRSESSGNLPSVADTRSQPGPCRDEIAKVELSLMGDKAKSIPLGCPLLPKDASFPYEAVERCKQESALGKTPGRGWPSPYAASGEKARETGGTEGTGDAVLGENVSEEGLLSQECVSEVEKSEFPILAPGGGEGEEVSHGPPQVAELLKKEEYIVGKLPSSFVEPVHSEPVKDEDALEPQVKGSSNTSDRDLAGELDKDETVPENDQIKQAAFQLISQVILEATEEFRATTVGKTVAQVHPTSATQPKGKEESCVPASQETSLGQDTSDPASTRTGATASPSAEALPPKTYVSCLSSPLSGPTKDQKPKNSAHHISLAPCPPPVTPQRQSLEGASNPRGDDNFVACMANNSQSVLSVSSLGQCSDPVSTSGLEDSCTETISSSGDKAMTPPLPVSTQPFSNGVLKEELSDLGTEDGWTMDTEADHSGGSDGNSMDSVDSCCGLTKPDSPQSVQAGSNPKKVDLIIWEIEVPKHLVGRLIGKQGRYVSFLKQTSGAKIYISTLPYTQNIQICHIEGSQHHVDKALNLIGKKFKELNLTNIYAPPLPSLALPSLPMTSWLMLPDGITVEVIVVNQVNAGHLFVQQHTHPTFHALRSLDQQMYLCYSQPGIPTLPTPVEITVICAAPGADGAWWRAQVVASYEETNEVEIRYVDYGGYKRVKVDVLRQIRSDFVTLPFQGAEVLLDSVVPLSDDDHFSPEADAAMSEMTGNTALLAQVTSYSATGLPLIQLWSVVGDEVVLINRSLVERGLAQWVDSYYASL
Experimental: Cells and tissues were lysed in 10 mM Tris pH 7.5, 10 mM NaCl, 1 mM EDTA and 0.5% Triton X-100, supplemented with complete mini EDTA-free protease (Roche Diagnostics) and phosphatase (Cocktail 2 and 3, Sigma) inhibitors, followed by 10 second sonication. For analysis of mitochondrial proteins, mitochondria were isolated from cells by dual centrifugation, as described. Protein lysates were separated by SDS-PAGE and transferred to a nitrocellulose membrane. Transfer was confirmed by Ponceau staining (P7170, Sigma). After blocking in 5% milk, 0.1% Tween-20 in Tris-buffered saline (TBS), primary antibody was incubated overnight at 4° C. in 5% bovine serum albumin and 0.1% Tween-20 in TBS. Primary antibodies against ACTB (GTX109639, GeneTex), AKAP1 (5203, Cell Signaling), AKAP6 (07-087, Millipore), Cytochrome c (136F3, Cell Signaling), electron transport chain protein complexes (Total OXPHOS rodent WB antibody cocktail ab110413, Abcam), GAPDH (GTX100118, Genetex), active p38 MAPK (V1211, Promega), total p38 MAPK (8690, Cell Signaling), PGC1α (AB3242, Millipore), phospho-(Ser/Thr) PKA substrate (9621, Cell Signaling), PKA C-α (4782, Cell Signaling), PKA RII-β (ab75993, Abcam), and UCP1 (662045, Calbiochem) were used at 1:2000. […] Quantification using representative bands from the Ponceau staining was performed with ImageJ. […]

[2] = system: NRVM; assay: Respirometry (reserve capacity) in neonatal rat ventricular myocytes; type: cell-based; details: 10 μM Z160 for 24 h following 48 h 100 μM isoproterenol
Experimental: Rat H9c2 cells were grown in DMEM supplemented with 10% FBS, 25 mM glucose, 1 mM pyruvate, and 2 mM glutamine Neonatal rat ventricular myocytes (NRVM) were isolated and cultured as previously described. Briefly, 2-4 day old rats were sacrificed and myocytes and fibroblasts were isolated and separated using a Percoll density gradient. Following isolation, NRVMs were plated on gelatin-coated plates in DMEM containing 10% FBS, 25 mM glucose, 1 mM pyruvate, and 2 mM glutamine The next day, FBS was replaced by 1× insulin-transferrin-selenium supplement and the cells were treated with vehicle or 10 μM Z160 for 2 days, with or without 60 μM isoproterenol or 50 μM phenylephrine.
NRVM were seeded in a Seahorse Bioscience XF96 plate and cultured for 48 h in 10% FBS. Next, cells were treated with 100 μM ISO for 48 h, followed by 24 h of 10 μM Z160. Oxygen consumption rate (OCR) was recorded in a Seahorse Bioscience XF96 analyzer before and after the sequential injection of 0.75 μM oligomycin, 0.75 μm FCCP and 0.75 μM rotenone/myxothiazol. Reserve capacity was calculated as the difference between basal respiration and FCCP response.

COc1ccc(NC(=O)CSc2nc3ccccc3c(=O)[nH]2)c(OC)c1 [Z160]
AKAP1 protein levels in the mitochondrial fraction [1]: increased | effect on isoproterenol-induced reduction in reserve capacity [2]: prevented the ISO-induced reduction in reserve capacity
